Measurements as given in ChEMBL document CHEMBL1201862, “PubChem BioAssay data set” (2004).
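Cultured in 96-well plates, cells were exposed to test compound for 48 hours across five concentrations. GI50 = concentration required for 50% inhibition of growth.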 The source made the active and inactive calls. Rule as the data show it: active = GI50 up to about 1.1 µM and inactive = higher.

What was measured:
Experiment in all cases: inhibition of tumour cell growth, NCI panel, 48 h
A498 = tested on: A498
ACHN = tested on: ACHN
HOP-62 = tested on: HOP-62
Hs-578T = tested on: Hs-578T
MDA-MB-231 = tested on: MDA-MB-231
MDA-MB-435 = tested on: MDA-MB-435
MOLT-4 = tested on: MOLT-4
Malme-3M = tested on: Malme-3M
NCI-H23 = tested on: NCI-H23
NCI/ADR-RES = tested on: NCI/ADR-RES
PC-3 = tested on: PC-3
SF-295 = tested on: SF-295
SF-539 = tested on: SF-539
SR = tested on: SR
U-251 = tested on: U-251
UACC-62 = tested on: UACC-62
UO-31 = tested on: UO-31
RXF 393 = tested on: RXF 393
SF-268 = tested on: SF-268
SNB-75 = tested on: SNB-75

Structure (SMILES)	GI50 (A498)	GI50 (ACHN)	GI50 (HOP-62)	GI50 (Hs-578T)	GI50 (MDA-MB-231)	GI50 (MDA-MB-435)	GI50 (MOLT-4)	GI50 (Malme-3M)	GI50 (NCI-H23)	GI50 (NCI/ADR-RES)	GI50 (PC-3)	GI50 (SF-295)	GI50 (SF-539)	GI50 (SR)	GI50 (U-251)	GI50 (UACC-62)	GI50 (UO-31)	GI50 (RXF 393)	GI50 (SF-268)	GI50 (SNB-75)
Cc1cc(S(=O)(=O)Nc2nnc3ccccn23)c(S)cc1Cl	25 µM (inactive)	> 100 µM (inactive)	56.6 µM (inactive)	> 100 µM (inactive)	> 100 µM (inactive)	> 100 µM (inactive)	71.6 µM (inactive)	> 100 µM (inactive)	> 100 µM (inactive)	> 100 µM (inactive)	> 100 µM (inactive)	25.9 µM (inactive)	> 100 µM (inactive)	> 100 µM (inactive)	47.9 µM (inactive)	> 100 µM (inactive)	> 100 µM (inactive)	–	–	–
CC(CO)(CO)Nc1ncnc2ccccc12	> 100 µM (inactive)	> 100 µM (inactive)	> 100 µM (inactive)	> 100 µM (inactive)	> 100 µM (inactive)	> 100 µM (inactive)	> 100 µM (inactive)	> 100 µM (inactive)	> 100 µM (inactive)	> 100 µM (inactive)	> 100 µM (inactive)	> 100 µM (inactive)	–	66.1 µM (inactive)	> 100 µM (inactive)	> 100 µM (inactive)	> 100 µM (inactive)	> 100 µM (inactive)	> 100 µM (inactive)	> 100 µM (inactive)
Cc1ccc(SC[C@@]2(C(F)F)NC(=O)NC2=O)cc1	> 100 µM (inactive)	> 100 µM (inactive)	> 100 µM (inactive)	> 100 µM (inactive)	> 100 µM (inactive)	> 100 µM (inactive)	> 100 µM (inactive)	> 100 µM (inactive)	> 100 µM (inactive)	> 100 µM (inactive)	> 100 µM (inactive)	> 100 µM (inactive)	–	> 100 µM (inactive)	> 100 µM (inactive)	> 100 µM (inactive)	> 100 µM (inactive)	> 100 µM (inactive)	> 100 µM (inactive)	> 100 µM (inactive)
COc1cc(C2SCC(=O)N2c2cc(Cl)c(Cl)cc2Cl)cc(OC)c1OC (centres undefined)	63 µM (inactive)	42.3 µM (inactive)	–	99.8 µM (inactive)	> 100 µM (inactive)	30.5 µM (inactive)	23.9 µM (inactive)	–	50.5 µM (inactive)	34.4 µM (inactive)	62.8 µM (inactive)	49.8 µM (inactive)	43.1 µM (inactive)	26.4 µM (inactive)	77.8 µM (inactive)	22.2 µM (inactive)	34.7 µM (inactive)	–	90.2 µM (inactive)	–
O=C1OC(c2ccccc2)=N/C1=C\c1ccc([N+](=O)[O-])cc1	35.4 µM (inactive)	14.3 µM (inactive)	30.1 µM (inactive)	24.1 µM (inactive)	44.6 µM (inactive)	> 100 µM (inactive)	15.1 µM (inactive)	–	24.5 µM (inactive)	8.97 µM (inactive)	> 100 µM (inactive)	32.7 µM (inactive)	9.16 µM (inactive)	2.35 µM (inactive)	19.7 µM (inactive)	26.5 µM (inactive)	50.7 µM (inactive)	32.9 µM (inactive)	32.8 µM (inactive)	22.9 µM (inactive)
CCOC(=O)c1ccc2c(=O)n3c(C(=O)OCC)ccc3c(=O)n12	> 100 µM (inactive)	> 100 µM (inactive)	> 100 µM (inactive)	> 100 µM (inactive)	> 100 µM (inactive)	> 100 µM (inactive)	> 100 µM (inactive)	> 100 µM (inactive)	> 100 µM (inactive)	> 100 µM (inactive)	> 100 µM (inactive)	> 100 µM (inactive)	–	> 100 µM (inactive)	> 100 µM (inactive)	> 100 µM (inactive)	> 100 µM (inactive)	> 100 µM (inactive)	> 100 µM (inactive)	44.5 µM (inactive)
OCc1cc2c(ccc3sc4ccc5sc6ccc7ncccc7c6c5c4c32)s1	23.5 µM (inactive)	31.6 µM (inactive)	12.7 µM (inactive)	8.53 µM (inactive)	4.17 µM (inactive)	24.3 µM (inactive)	11.5 µM (inactive)	–	–	21.7 µM (inactive)	5.93 µM (inactive)	12.5 µM (inactive)	14.4 µM (inactive)	10.5 µM (inactive)	28.4 µM (inactive)	7.45 µM (inactive)	2.11 µM (inactive)	11.7 µM (inactive)	–	3.89 µM (inactive)
CC(=O)Nc1ccc2[nH]c(C(=O)N3CC(CCl)c4c3cc([N+](=O)[O-])c3ccccc43)cc2c1 (centres undefined)	0.863 µM (active)	5.57 µM (inactive)	–	4.26 µM (inactive)	> 51.4 µM (inactive)	14.7 µM (inactive)	0.889 µM (active)	–	8.57 µM (inactive)	4.45 µM (inactive)	1.2 µM (inactive)	7.33 µM (inactive)	–	0.349 µM (active)	3.48 µM (inactive)	4.52 µM (inactive)	0.805 µM (active)	4.74 µM (inactive)	1.98 µM (inactive)	3.4 µM (inactive)
NC(=O)C1CCCN1C(=O)C(Cc1c[nH]cn1)NC(=O)C1CCCC1 (centres undefined)	23.4 µM (inactive)	> 100 µM (inactive)	> 100 µM (inactive)	> 100 µM (inactive)	> 100 µM (inactive)	> 100 µM (inactive)	> 100 µM (inactive)	> 100 µM (inactive)	> 100 µM (inactive)	> 100 µM (inactive)	> 100 µM (inactive)	> 100 µM (inactive)	–	> 100 µM (inactive)	> 100 µM (inactive)	> 100 µM (inactive)	> 100 µM (inactive)	> 100 µM (inactive)	–	> 100 µM (inactive)
COc1cc([C@@H]2c3cc4c(cc3[C@@H](/N=C/c3ccc(C(=O)O[C@@H](C(=O)O[C@H]5C[C@@]6(O)[C@@H](OC(=O)c7ccccc7)[C@@H]7[C@]8(OC(C)=O)CO[C@@H]8C[C@H](O)[C@@]7(C)C(=O)[C@H](OC(C)=O)C(=C5C)C6(C)C)[C@@H](NC(=O)c5ccccc5)c5ccccc5)cc3)[C@H]3COC(=O)[C@H]23)OCO4)cc(OC)c1O	0.133 µM (active)	5.08 µM (inactive)	0.246 µM (active)	0.0459 µM (active)	0.116 µM (active)	< 0.005 µM (active)	0.018 µM (active)	–	0.869 µM (active)	> 46 µM (inactive)	0.0138 µM (active)	0.171 µM (active)	0.0141 µM (active)	< 0.005 µM (active)	0.0154 µM (active)	0.0815 µM (active)	–	0.0333 µM (active)	0.0703 µM (active)	< 0.005 µM (active)
O=Cc1ccc(-c2cccc([N+](=O)[O-])c2)s1	16.9 µM (inactive)	> 100 µM (inactive)	> 100 µM (inactive)	53.6 µM (inactive)	> 100 µM (inactive)	> 100 µM (inactive)	41.2 µM (inactive)	–	> 100 µM (inactive)	94.6 µM (inactive)	> 100 µM (inactive)	> 100 µM (inactive)	> 100 µM (inactive)	56.5 µM (inactive)	45.4 µM (inactive)	> 100 µM (inactive)	65.8 µM (inactive)	54.3 µM (inactive)	> 100 µM (inactive)	70.8 µM (inactive)
Cc1ccc(OCC2OC(n3cnc4nc(N)nc(Cl)c43)CC2Oc2ccc(C)cc2)cc1 (centres undefined)	28.2 µM (inactive)	15.2 µM (inactive)	22.3 µM (inactive)	15.4 µM (inactive)	34.6 µM (inactive)	27.9 µM (inactive)	4.51 µM (inactive)	24.3 µM (inactive)	15.6 µM (inactive)	15.9 µM (inactive)	21.9 µM (inactive)	27.6 µM (inactive)	23.3 µM (inactive)	6.71 µM (inactive)	29.6 µM (inactive)	27.5 µM (inactive)	–	–	15.4 µM (inactive)	11 µM (inactive)
C=C1C[C@@H]2CC[C@@]34CC5O[C@H]6C(O[C@H]7CC[C@H](CC(=O)O[C@@H]8[C@@H](C)[C@@H]9O[C@@H]%10C[C@]%11(C[C@@H]%12O[C@]%13(C[C@H](C)[C@@H]%14O[C@@H]%15CC(C(O)CO)O[C@@H]%15C[C@@H]%14O%13)C[C@H](C)[C@@H]%12O%11)O[C@@H]%10C[C@@H]9O[C@H]8CC8O[C@@H](CC[C@@H]1O2)C[C@@H](C)C8(O)CO)O[C@@H]7[C@@H]6O3)[C@H]5O4 (some centres undefined)	> 1 µM (active)	> 1 µM (active)	> 1 µM (active)	0.0627 µM (active)	> 1 µM (active)	0.294 µM (active)	> 1 µM (active)	0.394 µM (active)	> 0.473 µM (active)	> 1 µM (active)	0.995 µM (active)	> 0.796 µM (active)	–	> 0.625 µM (active)	> 1 µM (active)	0.481 µM (active)	> 1 µM (active)	0.516 µM (active)	> 1 µM (active)	0.294 µM (active)
CC1(C)C[C@H]2C3=CC[C@@H]4[C@@]5(C)CC[C@H](O)C(C)(C)[C@@H]5CC[C@@]4(C)[C@]3(C)C[C@@H](O)[C@@]23C[C@@H]1OC3=O	> 100 µM (inactive)	> 100 µM (inactive)	> 100 µM (inactive)	> 100 µM (inactive)	> 100 µM (inactive)	> 100 µM (inactive)	49.2 µM (inactive)	> 100 µM (inactive)	> 100 µM (inactive)	72.4 µM (inactive)	68.1 µM (inactive)	74.6 µM (inactive)	> 100 µM (inactive)	> 100 µM (inactive)	> 100 µM (inactive)	> 100 µM (inactive)	> 100 µM (inactive)	–	> 100 µM (inactive)	> 100 µM (inactive)
